Assay results as given in PubChem BioAssay AID248 (DTP/NCI, 2004).
“And” between values parts separate entries of the source, which are not always exact repeats. Equal entries are not always repeated. Toxic doses and inconclusive results are not listed.

Tested on: L1210 leukemia ip in BDF1 mice, survival T/C
Experiment: NCI In Vivo Anticancer Drug Screen. Data for tumor model L1210 Leukemia (intraperitoneal) in B6D2F1 (BDF1) mice
Conditions: endpoint: mean survival time, higher = longer survival
In short: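 Tumor cells were implanted, animals were treated, and survival was followed. The result divides the treated measurement by the vehicle-control measurement.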

[1] = dose: 100.0 mg/kg/injection, schedule: Q01DX001 (ip), vehicle: carboxymethylcellulose (CMC)
[2] = dose: 200.0 mg/kg/injection, schedule: Q01DX001 (ip), vehicle: carboxymethylcellulose (CMC)
[3] = dose: 400.0 mg/kg/injection, schedule: Q01DX001 (ip), vehicle: carboxymethylcellulose (CMC)
[4] = dose: 100.0 mg/kg/injection, schedule: Q04DX003 (ip), vehicle: saline with Tween-80
[5] = dose: 200.0 mg/kg/injection, schedule: Q04DX003 (ip), vehicle: saline with Tween-80
[6] = dose: 400.0 mg/kg/injection, schedule: Q04DX003 (ip), vehicle: saline with Tween-80
[7] = dose: 100.0 mg/kg/injection, schedule: Q04DX002 (ip), vehicle: Klucel (hydroxypropylcellulose) (HPC)
[8] = dose: 200.0 mg/kg/injection, schedule: Q04DX002 (ip), vehicle: Klucel (hydroxypropylcellulose) (HPC)
[9] = dose: 400.0 mg/kg/injection, schedule: Q04DX002 (ip), vehicle: Klucel (hydroxypropylcellulose) (HPC)
[10] = dose: 100.0 mg/kg/injection, schedule: Q01DX009 (ip), vehicle: Klucel (hydroxypropylcellulose) (HPC)
[11] = dose: 100.0 mg/kg/injection, schedule: Q04DX003 (ip), vehicle: Klucel (hydroxypropylcellulose) (HPC)
[12] = dose: 200.0 mg/kg/injection, schedule: Q01DX009 (ip), vehicle: Klucel (hydroxypropylcellulose) (HPC)
[13] = dose: 200.0 mg/kg/injection, schedule: Q04DX003 (ip), vehicle: Klucel (hydroxypropylcellulose) (HPC)
[14] = dose: 400.0 mg/kg/injection, schedule: Q01DX009 (ip), vehicle: Klucel (hydroxypropylcellulose) (HPC)
[15] = dose: 200.0 mg/kg/injection, schedule: Q01DX001 (ip), vehicle: saline with Tween-80
[16] = dose: 400.0 mg/kg/injection, schedule: Q01DX001 (ip), vehicle: saline with Tween-80
[17] = dose: 100.0 mg/kg/injection, schedule: Q04DX003 (ip), vehicle: saline
[18] = dose: 200.0 mg/kg/injection, schedule: Q04DX003 (ip), vehicle: saline
[19] = dose: 400.0 mg/kg/injection, schedule: Q04DX003 (ip), vehicle: saline
[20] = dose: 100.0 mg/kg/injection, schedule: Q01DX001 (ip), vehicle: saline
[21] = dose: 200.0 mg/kg/injection, schedule: Q01DX001 (ip), vehicle: saline
[22] = dose: 400.0 mg/kg/injection, schedule: Q01DX001 (ip), vehicle: saline

CNC(=O)Nc1cc(C)ccc1Cl
T/C (dose: 50.0 mg/kg/injection, schedule: Q01DX009 (ip), vehicle: carboxymethylcellulose (CMC)): 95 % of control and 89 % of control | T/C (dose: 87.5 mg/kg/injection, schedule: Q04DX003 (ip), vehicle: carboxymethylcellulose (CMC)): 101 % of control | T/C [1]: 94 % of control | T/C (dose: 100.0 mg/kg/injection, schedule: Q04DX002 (ip), vehicle: carboxymethylcellulose (CMC)): 100 % of control and 117 % of control | T/C (dose: 175.0 mg/kg/injection, schedule: Q04DX003 (ip), vehicle: carboxymethylcellulose (CMC)): 93 % of control | T/C [2]: 92 % of control | T/C (dose: 200.0 mg/kg/injection, schedule: Q04DX002 (ip), vehicle: carboxymethylcellulose (CMC)): 100 % of control and 102 % of control | T/C (dose: 350.0 mg/kg/injection, schedule: Q04DX003 (ip), vehicle: carboxymethylcellulose (CMC)): 104 % of control | T/C [3]: 94 % of control | T/C (dose: 400.0 mg/kg/injection, schedule: Q01DX009 (ip), vehicle: carboxymethylcellulose (CMC)): 93 % of control | T/C (dose: 400.0 mg/kg/injection, schedule: Q04DX002 (ip), vehicle: carboxymethylcellulose (CMC)): 93 % of control and 96 % of control

CCSC(=O)CC
T/C [4]: 104 % of control | T/C [5]: 100 % of control | T/C [6]: 95 % of control

[Cl][Sn]([Cl])([c]1ccccc1)[c]1ccccc1
T/C (dose: 12.5 mg/kg/injection, schedule: Q01DX001 (ip), vehicle: saline): 108 % of control | T/C (dose: 25.0 mg/kg/injection, schedule: Q01DX001 (ip), vehicle: saline): 96 % of control | T/C (dose: 50.0 mg/kg/injection, schedule: Q01DX001 (ip), vehicle: saline): 100 % of control

N#Cc1cc(Cl)cc(Cl)c1
T/C [1]: 98 % of control | T/C [2]: 104 % of control | T/C [3]: 93 % of control

CCN(CC)C(=O)Nc1cccc([N+](=O)[O-])c1
T/C [7]: 104 % of control | T/C [8]: 97 % of control | T/C [9]: 101 % of control

N#C/C(=C/c1ccccc1)C(=O)O
T/C (dose: 50.0 mg/kg/injection, schedule: Q01DX001 (ip), vehicle: carboxymethylcellulose (CMC)): 87 % of control | T/C [1]: 96 % of control | T/C [2]: 107 % of control

O=C(NC/C=C/Br)Nc1cnc2ccccc2c1
T/C (dose: 12.5 mg/kg/injection, schedule: Q01DX009 (ip), vehicle: saline with Tween-80): 96 % of control | T/C (dose: 25.0 mg/kg/injection, schedule: Q01DX009 (ip), vehicle: saline with Tween-80): 101 % of control | T/C (dose: 50.0 mg/kg/injection, schedule: Q01DX009 (ip), vehicle: saline with Tween-80): 96 % of control | T/C [4]: 89 % of control

N#CCCN(C(=O)COc1ccc(Cl)cc1Cl)C1CCCCC1
T/C [10]: 95 % of control | T/C [11]: 95 % of control | T/C [12]: 104 % of control | T/C [13]: 100 % of control | T/C [14]: 95 % of control

O=C(OCC(O)C(O)C(O)C(O)COC(=O)c1ccccc1)c1ccccc1 (centres undefined)
T/C [1]: 98 % of control | T/C [2]: 95 % of control | T/C [3]: 95 % of control

O=C1C(c2ccccc2)=C(c2ccccc2)c2c1c(-c1ccccc1)c(-c1ccccc1)c(-c1ccccc1)c2-c1ccccc1
T/C (dose: 6.25 mg/kg/injection, schedule: Q01DX001 (ip), vehicle: saline with Tween-80): 98 % of control | T/C (dose: 12.5 mg/kg/injection, schedule: Q01DX001 (ip), vehicle: saline with Tween-80): 98 % of control | T/C (dose: 25.0 mg/kg/injection, schedule: Q01DX001 (ip), vehicle: saline with Tween-80): 89 % of control and 91 % of control | T/C [15]: 90 % of control | T/C [16]: 87 % of control

CS(=O)(=O)CS(C)(=O)=O
T/C [1]: 93 % of control | T/C [10]: 94 % of control | T/C [17]: 94 % of control | T/C [2]: 93 % of control | T/C [12]: 105 % of control | T/C [18]: 98 % of control | T/C [3]: 110 % of control | T/C [14]: 101 % of control | T/C [19]: 93 % of control

CCCC(=O)NO
T/C [20]: 97 % of control | T/C (dose: 100.0 mg/kg/injection, schedule: Q01DX009 (ip), vehicle: saline): 102 % of control | T/C [17]: 109 % of control and 105 % of control | T/C [21]: 114 % of control | T/C (dose: 200.0 mg/kg/injection, schedule: Q01DX009 (ip), vehicle: saline): 104 % of control | T/C [18]: 111 % of control and 96 % of control | T/C [22]: 108 % of control | T/C (dose: 400.0 mg/kg/injection, schedule: Q01DX009 (ip), vehicle: saline): 114 % of control | T/C [19]: 112 % of control and 100 % of control

O=C(O)CCC(=O)Nc1ccc(Cl)cc1
T/C [4]: 97 % of control | T/C [5]: 94 % of control | T/C [6]: 86 % of control

CCCC(=O)Oc1ccc(/C=N/NC(N)=S)nc1
T/C (dose: 100.0 mg/kg/injection, schedule: Q01DX009 (ip), vehicle: saline with Tween-80): 119 % of control | T/C (dose: 100.0 mg/kg/injection, schedule: Q04DX002 (ip), vehicle: saline with Tween-80): 113 % of control | T/C (dose: 200.0 mg/kg/injection, schedule: Q01DX009 (ip), vehicle: saline with Tween-80): 156 % of control | T/C (dose: 400.0 mg/kg/injection, schedule: Q01DX009 (ip), vehicle: saline with Tween-80): 176 % of control | T/C (dose: 600.0 mg/kg/injection, schedule: Q01DX009 (ip), vehicle: saline with Tween-80): 109 % of control

COC(=O)C(CCC1CCCCN1)(c1ccccc1)c1ccccc1 (centres undefined)
T/C (dose: 35.0 mg/kg/injection, schedule: Q01DX009 (ip), vehicle: saline): 112 % of control and 119 % of control | T/C (dose: 50.0 mg/kg/injection, schedule: Q01DX009 (ip), vehicle: saline): 120 % of control | T/C (dose: 110.0 mg/kg/injection, schedule: Q01DX009 (ip), vehicle: saline): 96 % of control

NC(CSS(=O)(=O)O)=NCc1cccnc1
T/C [7]: 89 % of control | T/C [8]: 105 % of control

C[Si](C)(C)Cc1ccccc1F
T/C (dose: 25.6 mg/kg/injection, schedule: Q04DX002 (ip), vehicle: saline with Tween-80): 101 % of control | T/C (dose: 64.0 mg/kg/injection, schedule: Q04DX002 (ip), vehicle: saline with Tween-80): 93 % of control | T/C (dose: 160.0 mg/kg/injection, schedule: Q04DX002 (ip), vehicle: saline with Tween-80): 104 % of control | T/C (dose: 400.0 mg/kg/injection, schedule: Q04DX002 (ip), vehicle: saline with Tween-80): 90 % of control

CC(=O)/C=C(\C)NCC(C)N/C(C)=C/C(C)=O (centres undefined)
T/C [20]: 105 % of control | T/C [21]: 96 % of control | T/C [22]: 99 % of control

ClC(Cl)(Cl)C1OCCOCCO1
T/C [7]: 93 % of control | T/C [8]: 97 % of control | T/C [9]: 107 % of control

COc1ccc(OC)c2cc3ccccc3cc12
T/C [1]: 106 % of control | T/C [2]: 104 % of control | T/C [3]: 93 % of control

CC(C)NC(=O)Nc1cccc(O)c1
T/C [4]: 96 % of control | T/C [5]: 89 % of control | T/C [6]: 89 % of control

COC(=O)c1cccc2c1C1CCC2c2cccc(C(=O)OC)c21
T/C (dose: 100.0 mg/kg/injection, schedule: Q04DX002 (ip), vehicle: gum acacia): 101 % of control | T/C (dose: 200.0 mg/kg/injection, schedule: Q04DX002 (ip), vehicle: gum acacia): 96 % of control | T/C (dose: 400.0 mg/kg/injection, schedule: Q04DX002 (ip), vehicle: gum acacia): 99 % of control

CC1=C(C)C23OCC(CO2)CC3=C(C)C1=O
T/C (dose: 100.0 mg/kg/injection, schedule: Q01DX001 (ip), vehicle: saline with Tween-80): 93 % of control | T/C [15]: 122 % of control | T/C [16]: 104 % of control

O=C(Nc1ccccc1)OCC1CC2CCC1C2 (centres undefined)
T/C [10]: 96 % of control | T/C [11]: 95 % of control | T/C [12]: 94 % of control | T/C [13]: 93 % of control | T/C [14]: 96 % of control | T/C (dose: 400.0 mg/kg/injection, schedule: Q04DX003 (ip), vehicle: Klucel (hydroxypropylcellulose) (HPC)): 93 % of control

O=C(O)c1ccc(OCCCOc2ccccc2)c(Cl)c1
T/C [4]: 96 % of control | T/C [5]: 93 % of control
